Experimental data published in patent publication US10023592B2, “Bromodomain inhibitors” (Celgene Quanticel Research, Inc., priority 2013, dated 2018).

Molecular target: BRD4(BD1) (Homo sapiens (Human), UniProt O60885)
Assay: In vitro enzyme inhibition assay (BRD4 AlphaScreen)
Format: binding
Conditions: in vitro enzyme inhibition assay
How it was run: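 AlphaScreen proximity readout, using streptavidin donor and Ni-chelate acceptor beads at 5 μg/mL final, monitors biotin-H4 tetraacetylated peptide interaction with purified His-tagged BRD4.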

Compound	IC50 [nM]
Cc1cc(-c2cc(NS(C)(=O)=O)ccc2Oc2ccc(F)cc2F)cn(C2CCC2)c1=O [Example 484, N-[3-(1-cyclobutyl-5-methyl-6-oxopyridin-3-yl)-4-(2,4-difluorophenoxy)phenyl]methanesulfonamide]	< 500
Cc1cc(-c2cc(S(C)(=O)=O)ccc2OCC2CC2)cn(Cc2ccccc2)c1=O [Example 485, 1-benzyl-5-[2-(cyclopropylmethoxy)-5-methylsulfonylphenyl]-3-methylpyridin-2-one]	500 to 5000
Cc1cc(-c2cc(S(C)(=O)=O)cc3c2OCCO3)cn(C)c1=O [Example 489, 1,3-dimethyl-5-(7-methylsulfonyl-2,3-dihydro-1,4-benzodioxin-5-yl)pyridin-2-one]	500 to 5000
CCC1CCc2cc(NS(C)(=O)=O)cc(-c3cn(C)c(=O)c4ccccc34)c2O1 (stereo not drawn) [Example 490, N-[2-ethyl-8-(2-methyl-1-oxoisoquinolin-4-yl)-3,4-dihydro-2H-chromen-6-yl] methanesulfonamide]	< 500
CCC1CCc2cc(NS(=O)(=O)CC)cc(-c3cc(C)c(=O)n(C)c3)c2O1 (stereo not drawn) [Example 492, N-[8-(1,5-dimethyl-6-oxopyridin-3-yl)-2-ethyl-3,4-dihydro-2H-chromen-6-yl] ethanesulfonamide]	< 500
Cn1cc(-c2cc(S(C)(=O)=O)cc3c2OC(C2CC2)C3)c2ccccc2c1=O (stereo not drawn) [Example 493, 4-(2-cyclopropyl-5-methylsulfonyl-2,3-dihydro-1-benzofuran-7-yl)-2-methylisoquinolin-1-one]	< 500
CCCC1Cc2cc(NS(=O)(=O)CC)cc(-c3cc(C)c(=O)n(C)c3)c2O1 (stereo not drawn) [Example 495, N-[7-(1,5-dimethyl-6-oxopyridin-3-yl)-2-propyl-2,3-dihydro-1-benzofuran-5-yl] ethanesulfonamide]	< 500
CCS(=O)(=O)c1ccc(OCC2CC2)c(-c2cn(C)c(=O)c3c2CCC3)c1 [Example 505, 4-[2-(cyclopropylmethoxy)-5-ethylsulfonylphenyl]-2-methyl-6,7-dihydro-5H-cyclopenta[c]pyridin-1-one]	< 500
CCS(=O)(=O)Nc1ccc(Oc2ccc(F)cc2F)c(-c2cn(C)c(=O)c3c2CCC3)c1 [Example 507, N-[4-(2,4-difluorophenoxy)-3-(2-methyl-1-oxo-6,7-dihydro-5H-cyclopenta[c]pyridin-4-yl)phenyl]ethanesulfonamide]	< 500
CCCCc1cnc(S(C)(=O)=O)nc1-c1cc(C)c(=O)n(C(C)C)c1 [Example 508, 5-(5-butyl-2-methylsulfonylpyrimidin-4-yl)-3-methyl-1-propan-2-ylpyridin-2-one]	< 500

Other lines, results leading:

IC50 [nM]	Compound
< 500	CCC1CCc2cc(NS(=O)(=O)CC)cc(-c3cn(C)c(=O)c4ccccc34)c2O1 (stereo not drawn) [Example 491, N-[2-ethyl-8-(2-methyl-1-oxoisoquinolin-4-yl)-3,4-dihydro-2H-chromen-6-yl]ethanesulfonamide]
< 500	COCC1COc2c(cc(S(C)(=O)=O)cc2-c2cc(C)c(=O)n(C)c2)O1 (stereo not drawn) [Example 502, 5-[2-(methoxymethyl)-7-methylsulfonyl-2,3-dihydro-1,4-benzodioxin-5-yl]-1,3-dimethylpyridin-2-one]
< 500	Cn1cc(-c2cc(NS(C)(=O)=O)ccc2Oc2ccc(F)cc2F)c2c(c1=O)CCC2 [Example 506, N-[4-(2,4-difluorophenoxy)-3-(2-methyl-1-oxo-6,7-dihydro-5H-cyclopenta[c]pyridin-4-yl)phenyl]methanesulfonamide]
500 to 5000	Cc1cc(-c2nc(S(C)(=O)=O)ncc2Oc2ccc(F)cc2F)cn(C(C)C)c1=O [Example 510, 5-[5-(2,4-difluorophenoxy)-2-methylsulfonylpyrimidin-4-yl]-3-methyl-1-propan-2-ylpyridin-2-one]
< 500	CCCCc1cnc(S(C)(=O)=O)nc1-c1cc(C(C)C)c(=O)n(C)c1 [Example 513, 5-(5-butyl-2-methylsulfonylpyrimidin-4-yl)-1-methyl-3-propan-2-ylpyridin-2-one]
